Counter-ions that a name gives are not always drawn. Like-named read-outs stand apart in the source and are kept apart here.
Assays:
[1] = tested on: p100/p52; assay: p100/p52 Western blot (WB) assay; format: cell-based, human; details: Homo sapiens
Description: Cell cultures were set up to evaluate several SMACm compounds. Frozen PBMC cells from healthy donors were thawed and plated in 2 ml deepwell plates at 2×10^6 cells/ml. Serial dilutions of each compound was carried out as a 7 fold 1:6 dilution with the starting final dose of 1000 nM. Cells were then combined with compound and place at 37° for 24 hrs. The following day cells were pelleted and placed at −80 until lysis.
In preparation for cell lysis, the frozen cell pellets and an aliquot of NP40 Cell Lysis Buffer (Invitrogen, Part #FNN0021), as well as an aliquot of 10× Protease Inhibitor Cocktail (Sigma, Part #P-2714) are thawed on ice. Once thawed, the complete lysis buffer is prepared by adding 10% final volume PI cocktail to the NP40 buffer and then adding in sufficient volume of 0.1 M PMSF (Sigma, Part #93482) and 1 M DTT (Sigma, Part #43816) to create a final concentration of 1 mM each in the complete lysis buffer. Cell lysis is then carried out by resuspending each cell pellet in 30 μL per 10^6 cells then incubating on ice for 30 minutes with vigorous vortexing every 10 minutes. The lysed cells are then centrifuged at 13K RPM for 10 minutes at 4° C. in a refrigerated microcentrifuge. The supernatants (lysates) are then transferred into new microcentrifuge tubes and either stored at −80° or utilized immediately for protein concentration and Western blot analysis.
Protein concentration for each lysate is determined using a detergent compatible Bradford assay (Pierce, Part #23246) following the manufacturer's microplate instructions.
Capillary Western analysis were performed using the ProteinSimple Jess System. A total of 1 ug of cell lysate was prepared according to the provided protocol supplied by ProteinSimple. The primary antibody for p100/p52 (Cell, Signaling #3017) is diluted 1:10 for use in the Jess system. The 12-230 kDa Jess Seperation Module capillary cartridges Separation Module (SM-W004) is used in conjunction with the Anti-Rabbit Secondary NIR conjugate (043-819). The Separation module includes prefilled plates that the samples, primary and secondary antibodies, as well as protein normalization reagent and diluents are loaded onto to perform separation and detection. Once the assay has run, the data is then analyzed utilizing the Compass software provided by ProteinSimple.
Alternatively to capillary electrophoresis, traditional immunoblot assays were carried out, 10 μg of cell lysate was loaded per well into 4-20% Tris-Glycine SDS-PAGE gels. Protein from the SDS-PAGE gels were transferred to Turbo Midi PVDF Transfer Packs (BioRad) using the “Mixed MW” protocol for one Midi Format Gel (constant 2.5 A up to 25V, for 7 minutes) of the Trans-Blot Turbo Transfer System (Bio-Rad) with premade Trans-Blot per the manufacturer's instructions. After transfer, PVDF membranes were blocked in 5% bovine serum albumin (BSA) in 1×TBS (BioRad) with 0.1% Tween-20 for 1 hour at room temperature with gentle rocking. Primary antibodies were added and incubated overnight at 4° C. (anti-p100/p52, Cell Signaling Technology #3017, 1:1000; anti-Actin-HRP conjugate, Abcam #49900, 1:30,000). Following primary staining, the membrane washed three times with 1× Tris Buffered Saline (TBS)+0.1% TWEEN® 20 for 10 minutes each wash. After washing, the membrane was incubated in 5% BSA in 1×TBS+0.1% TWEEN® 20 with the appropriate secondary antibody for 2 hours at room temperature. Following secondary stain the membrane was washed twice for 10 minutes with 1×TBS+0.1% TWEEN® 20 followed by a 10-minute wash with 1×TBS. The membrane was then patted dry with filter paper and an image was captured of the undeveloped membrane on the ChemiDoc MP Imaging System using Image Lab software (BioRad). Sufficient ECL reagent (GE Healthcare) was used to cover the membrane and a series of images were taken starting with 0.001 second and doubling to tripling the exposure time until the luminescence from the developed membrane saturated the image. […]

[2] = tested on: Jurkat HIV-luciferase clones; assay: Jurkat latency reversal assay; format: cell-based; details: Homo sapiens, Jurkat
Procedure, shortened: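 Three pooled Jurkat HIV-luciferase clones (C16, I15, N6; 5,000 cells/well, maintained with 500 nM EFV) exposed to 3-fold, 14-point titrations (10 μM to 2.1 pM, 0.5% DMSO) in duplicate for 48 h at 37 °C. Luciferase luminescence read; EC50 and maximal % activation versus vehicle from four-parameter logistic fit.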

[3] = tested on: NFKB2; assay: NFkB2 gene induction; format: cell-based, human; details: Homo sapiens, CD4+ T, 24 h, read-out: NFkB2 gene induction EC50 (nM)
Description: 5×10^5 normal donor CD4 T cells were treated for 24h with serial dilutions of compounds starting at 1.0 μM at 6 fold, 7 places. Total RNA was isolated using the RNEasy Mini kit (Qiagen) per the manufacturer's instructions. The following TaqMan primer probe sets were sourced from Applied Biosystems: Hs00174517_m1 (NFKB2) and Hs02800695 (HPRT1). TaqMan-based real-time PCR (Fast Virus 1-Step Master Mix, Applied Biosystems) was used to amplify host genes of interest. Gene expression was normalized to HPRT1 and comparative threshold cycle (CT) method (ΔΔCT) was used for relative fold change of gene expression as compared to untreated cells. The data was analyzed by QuantStudio3 Real-Time PCR System.

[4] = PBMC, 24 h, read-out: p100/p52 Western Blot (WB) EC50 (nM)
[5] = Table 4 summary, read-out: Jurkat EC50

| SMILES | EC50 [1, 4] [nM] | EC50 ([2]; 48 h) [nM] | EC50 [2, 5] [nM] | EC50 [3] [nM] | EC50 ([1]; PBMC cells from healthy donors, 24 hrs, read-out: p100/p52 Western Blot (WB) EC50) [nM] | EC50 ([2]; 48 h, Table 4 summary, read-out: Jurkat EC50) [nM] |
| --- | --- | --- | --- | --- | --- | --- |
| CN[C@@H](C)C(=O)N[C@H]1CCS[C@H]2CC(C)(C)[C@@H](C(=O)N[C@H](COCC#CC#CCOC[C@@H](NC(=O)[C@H]3N4C(=O)[C@@H](NC(=O)[C@H](C)NC)CCS[C@H]4CC3(C)C)c3ccccc3)c3ccccc3)N2C1=O [compound 33, (4S,4′S,7S,7′S,9aS,9a′S)-N,N′-((1S,1′S)-(hexa-2,4-diyne-1,6-diylbis(oxy))bis(1-phenylethane-2,1-diyl))bis(8,8-dimethyl-4-((S)-2-(methylamino)propanamido)-5-oxooctahydropyrrolo[2,1-b][1,3]thiazepine-7-carboxamide) dihydrochloride] | 158 | 5.5 | 5.5 | 46 |  |  |
| CN[C@@H](C)C(=O)N[C@H]1CCS[C@H]2CC(C)(C)[C@@H](C(=O)N[C@H]3c4ccccc4C[C@H]3OCC#CC#CCO[C@@H]3Cc4ccccc4[C@@H]3NC(=O)[C@H]3N4C(=O)[C@@H](NC(=O)[C@H](C)NC)CCS[C@H]4CC3(C)C)N2C1=O [compound 13, (4S,4′S,7S,7′S,9aS,9a′S)-N,N′-((1S,1′S,2R,2′R)-(hexa-2,4-diyne-1,6-diylbis(oxy))bis(2,3-dihydro-1H-indene-2,1-diyl))bis(8,8-dimethyl-4-((S)-2-(methylamino)propanamido)-5-oxooctahydropyrrolo[2,1-b][1,3]thiazepine-7-carboxamide) dihydrochloride] | 12.6 | 9.3 | 9.3 | 73 |  |  |
| CN[C@@H](C)C(=O)N[C@H]1CCO[C@H]2CC(C)(C)C(C(=O)Nc3ccccc3SSc3ccccc3NC(=O)C3N4C(=O)[C@@H](NC(=O)[C@H](C)NC)CCO[C@H]4CC3(C)C)N2C1=O (stereo partly shown) [Formula F, reference compound] |  |  |  |  | > 1000 | ~1000 |
| CN[C@@H](C)C(=O)N[C@H]1CCS[C@H]2CC(C)(C)[C@@H](C(=O)N[C@H](COCCCCCCOC[C@@H](NC(=O)[C@H]3N4C(=O)[C@@H](NC(=O)[C@H](C)NC)CCS[C@H]4CC3(C)C)c3ccccc3)c3ccccc3)N2C1=O [compound 40, (4S,4′S,7S,7′S,9aS,9a′S)-N,N′-((1S,1′S)-(hexane-1,6-diylbis(oxy))bis(1-phenylethane-2,1-diyl))bis(8,8-dimethyl-4-((S)-2-(methylamino)propanamido)-5-oxooctahydropyrrolo[2,1-b][1,3]thiazepine-7-carboxamide) dihydrochloride] | 1 | 6.1 | 6.1 | 11 |  |  |
| CN[C@@H](C)C(=O)N[C@H]1CCS[C@H]2CC(C)(C)[C@@H](C(=O)N[C@H](COCc3ccc(COC[C@@H](NC(=O)[C@H]4N5C(=O)[C@@H](NC(=O)[C@H](C)NC)CCS[C@H]5CC4(C)C)c4ccccc4)cc3)c3ccccc3)N2C1=O [compound 42, (4S,4′S,7S,7′S,9aS,9a′S)-N,N′-((1S,1′S)-((1,4-phenylenebis(methylene))bis(oxy))bis(1-phenylethane-2,1-diyl))bis(8,8-dimethyl-4-((S)-2-(methylamino)propanamido)-5-oxooctahydropyrrolo[2,1-b][1,3]thiazepine-7-carboxamide) dihydrochloride] | 3.1 | 6.8 | 6.8 | 3.6 |  |  |
| CN[C@@H](C)C(=O)N[C@H]1CCS[C@H]2CC(C)(C)[C@@H](C(=O)N[C@H](COCc3ccc4cc(COC[C@@H](NC(=O)[C@H]5N6C(=O)[C@@H](NC(=O)[C@H](C)NC)CCS[C@H]6CC5(C)C)c5ccccc5)ccc4c3)c3ccccc3)N2C1=O [compound 62, (4S,4′S,7S,7′S,9aS,9a′S)-N,N′-((1S,1′S)-((naphthalene-2,6-diylbis(methylene))bis(oxy))bis(1-phenylethane-2,1-diyl))bis(8,8-dimethyl-4-((S)-2-(methylamino)propanamido)-5-oxooctahydropyrrolo[2,1-b][1,3]thiazepine-7-carboxamide)] |  | 4.2 |  |  |  |  |
| CN[C@@H](C)C(=O)N[C@H]1CCS[C@H]2CC(C)(C)[C@@H](C(=O)Nc3ccc(CCc4ccc(NC(=O)[C@H]5N6C(=O)[C@@H](NC(=O)[C@H](C)NC)CCS[C@H]6CC5(C)C)cc4)cc3)N2C1=O [compound 5, (4S,4′S,7S,7′S,9aS,9a′S)-N,N′-(ethane-1,2-diylbis(4,1-phenylene))bis(8,8-dimethyl-4-((S)-2-(methylamino)propanamido)-5-oxooctahydropyrrolo[2,1-b][1,3]thiazepine-7-carboxamide) ditrifluoroacetate] |  | 53.6 |  |  |  |  |
| CN[C@@H](C)C(=S)N[C@H]1CCS[C@H]2CC(C)(C)[C@@H](C(=O)N[C@H](COCCCCOC[C@@H](NC(=O)[C@H]3N4C(=O)[C@@H](NC(=S)[C@H](C)NC)CCS[C@H]4CC3(C)C)c3ccccc3)c3ccccc3)N2C1=O [compound 37, (4S,4′S,7S,7′S,9aS,9a′S)-N,N′-((1S,1′S)-(butane-1,4-diylbis(oxy))bis(1-phenylethane-2,1-diyl))bis(8,8-dimethyl-4-((S)-2-(methylamino)propanethioamido)-5-oxooctahydropyrrolo[2,1-b][1,3]thiazepine-7-carboxamide) dihydrochloride] |  | 10.9 |  |  |  |  |
| CN[C@@H](C)C(=O)N[C@H]1CCS[C@H]2CC(C)(C)[C@@H](C(=O)N[C@H]3c4ccccc4C[C@H]3C(=O)NCC#CC#CCNC(=O)[C@@H]3Cc4ccccc4[C@@H]3NC(=O)[C@H]3N4C(=O)[C@@H](NC(=O)[C@H](C)NC)CCS[C@H]4CC3(C)C)N2C1=O [compound 49, (4S,7S,9aS)-N-[(1R,2R)-2-[(6-{[(1R,2R)-1-[(4S,7S,9aS)-8,8-dimethyl-4-[(2S)-2-(methylamino)propanamido]-5-oxo-octahydropyrrolo[2,1-b][1,3]thiazepine-7-amido]-2,3-dihydro-1H-inden-2-yl]formamido}hexa-2,4-diyn-1-yl)carbamoyl]-2,3-dihydro-1H-inden-1-yl]-8,8-dimethyl-4-[(2S)-2-(methylamino)propanamido]-5-oxo-octahydropyrrolo[2,1-b][1,3]thiazepine-7-carboxamide] |  | 466 |  |  |  |  |
